# How the values were obtained:
# [1] = test system: 20S proteasome subunits; test: Competitive in situ LC-MS/MS pull-down with alkyne probe S10 and 1 (Figure S1, Table S3); assay type: cell-based, human; settings: 100 nM 1 versus 10 μM S10, RPMI 8226; targets: 20S proteasome subunits β5, β2i, α5, β1, β2
# Experimental: To determine the targets of cepafungin I in human MM cells through chemoproteomics, a clickable analogue (S10) was designed with alkyne functionality distal to the reactive macrocycle (i.e., at the end of the fatty acid chain). The synthesis of S10 proceeded in a similar fashion as in Scheme 2B except with the tail fragment built from initial alkyne substitution of 6-bromo-1-hexanol. […] To identify these targets, a competitive in situ LC-MS/MS-based pull-down experiment was performed using alkyne probe S10 and 1. Following live cell treatment with just the probe or the probe together with the natural product, alkyne conjugation to biotin-azide and pull-down with streptavidin beads, the probe analogue enriched 764 proteins from RPMI 8226. […] These targets were identified as the 20S proteasome subunits β5, β2i, α5, β1, and β2, highlighting cepafungin’s exceptional selectivity for the proteasome in MM cells (Figure S1 and Table S3). […] The “i” suffix here denotes subunits of the immunoproteasome, which is produced by most cells exposed to oxidative stress or proinflammatory cytokines and also by immune cells at especially high baseline levels.[37] […]
# fluorescence was read at A360ex/A460em. […]
# in DMSO) or DMSO and cultured for 48 hours. Toxicity was determined using the WST-1 assay (Roche) according to the protocol of the manufacturer. […]
# [2] = target: T1, proteasome subunit β5 (Homo sapiens, UniProt P28074); settings: in situ in RPMI 8226 cells; preliminary analogue series, Figure 2; cited from earlier work
# T1 construct: Following incubation of the compounds in cell culture for 6 h, cells were lysed; endogenous in cells; host or cells: RPMI 8226 (human multiple myeloma)
# [3] = test system: β5-subunit; settings: purified yeast proteasome; cited from earlier work
structure (smiles),measurement,setting,value
"CC(C)CCCCCC=CC=CC(=O)NC(C(=O)NC1CC(O)CCNC(=O)C=CC(C)NC1=O)C(C)O (stereo not drawn) [compound 1, cepafungin I]",number of enriched proteins competed >50%,[1],5 proteins
same,IC50,[2],16 ± 1 nM
same,fold improvement of β5-subunit inhibition compared to glidobactin A (2),[3],ca. 5 fold
